Measurements published in US12336981B2, “Compounds and compositions for the inhibition of NAMPT” (Valo Health, Inc., priority 2010, dated 2025).
Where “and” joins values, the source holds several entries; their conditions need not be identical. Identical values can stand only once. Like-named read-outs stand apart in the source and are kept apart here.

Columns and labels:
NAMPT = target: T1, NAMPT (Homo sapiens, UniProt P43490); assay: Biochemical inhibition assay: NAMPT enzymatic reaction, NMN quantified by mass spectrometry; conditions: read-out: Biochem IC50
T1 construct: His tag; host or cells: E. coli
T1 sequence (P43490 whole entry): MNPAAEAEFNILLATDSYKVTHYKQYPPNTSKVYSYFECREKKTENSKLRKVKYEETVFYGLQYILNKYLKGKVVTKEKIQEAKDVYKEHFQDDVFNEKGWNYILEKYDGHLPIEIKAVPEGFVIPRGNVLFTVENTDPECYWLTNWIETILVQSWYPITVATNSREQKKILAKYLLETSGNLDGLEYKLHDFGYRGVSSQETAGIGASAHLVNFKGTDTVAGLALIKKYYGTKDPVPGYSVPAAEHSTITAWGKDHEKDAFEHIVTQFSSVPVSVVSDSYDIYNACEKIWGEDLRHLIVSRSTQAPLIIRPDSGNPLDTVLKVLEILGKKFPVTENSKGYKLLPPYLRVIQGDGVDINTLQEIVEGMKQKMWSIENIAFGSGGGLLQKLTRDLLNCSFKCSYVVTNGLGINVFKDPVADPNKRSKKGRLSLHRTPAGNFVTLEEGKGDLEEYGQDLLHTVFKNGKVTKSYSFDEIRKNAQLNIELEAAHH
Summary of the method: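 Inhibition of E. coli-expressed His-tagged human NAMPT, measured as NMN formation by mass spectrometry after a 30 min room-temperature reaction containing 1 μM NAM, 100 μM PRPP and 2.5 mM ATP.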

A2780 cells = assay: In-vitro cell proliferation assay (SRB), A2780 cells; format: cell-based; conditions: Homo sapiens, A2780, 72 h, A2780 cells, 72 hours, read-out: A2780 IC50
Summary of the method: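 Proliferation is assessed by sulforhodamine B staining following a 72-hour incubation with compound dilutions containing 0.1% DMSO.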

SMILES	IC50 (NAMPT; NAMPT enzymatic assay)	IC50 (A2780 cells; SRB)	IC50 (NAMPT; NAMPT enzymatic reaction)	IC50 (A2780 cells; SRB assay)
CC(C)COc1cc(F)cc(S(=O)(=O)c2ccc(CNC(=O)c3cnc4[nH]ncc4c3)cc2)c1 [N-[(4-{[3-fluoro-5-(2-methylpropoxy)benzene]sulfonyl}phenyl)methyl]-1H-pyrazolo[3,4-b]pyridine-5-carboxamide]	11.2 nM	9.49 nM	–	–
CN(C)c1ncc(S(=O)(=O)c2ccc(CNC(=O)c3cc4cnccc4[nH]3)cc2)cn1 [N-({4-[2-(dimethylamino)pyrimidine-5-sulfonyl]phenyl}methyl)-1H-pyrrolo[3,2-c]pyridine-2-carboxamide]	19 nM	3.5 nM	–	–
O=C(NCc1ccc(S(=O)(=O)c2cc(Cl)ccc2OCC(F)F)cc1)c1cc2cnccc2[nH]1	5 nM	0.5 nM	–	–
Cc1ccc(F)cc1S(=O)(=O)c1ccc(CNC(=O)c2ccc3nccn3c2)cc1 [N-({4-[(5-fluoro-2-methylbenzene)sulfonyl]phenyl}methyl)imidazo[1,2-a]pyridine-6-carboxamide]	–	22.9 nM	12.6 nM	–
O=C(NCc1ccc(S(=O)(=O)c2ccc(F)c(C(F)(F)F)c2)cc1)c1cc2ccncc2s1	4 nM	2.8 nM	–	–
O=C(NCc1ccc(S(=O)(=O)c2cccc(N3CCCC3)c2)cc1)c1cc2cnccc2[nH]1	13.4 nM	2.8 nM	–	–
O=C(NCc1ccc(S(=O)(=O)c2cccc(N3CCCC3)c2)cc1)c1cc2ccncc2s1	1.9 nM	2.5 nM	–	–
Cc1cncc(S(=O)(=O)c2ccc(CNC(=O)c3cc4ccncc4o3)cc2)n1 [N-{[4-(6-methylpyrazine-2-sulfonyl)phenyl]methyl}furo[2,3-c]pyridine-2-carboxamide]	20.9 nM	9.7 nM	–	–
O=C(NCc1ccc(S(=O)(=O)c2cccc(N3CCOCC3)c2)cc1)c1cc2ccncc2s1	4 nM and 3.6 nM	1.9 nM	–	–
O=C(NCc1ccc(S(=O)(=O)c2cccc3c2OCC3)cc1)c1cnc2nccn2c1 [N-{[4-(2,3-dihydro-1-benzofuran-7-sulfonyl)phenyl]methyl}imidazo[1,2-a]pyrimidine-6-carboxamide]	2.1 nM	25.8 nM	–	–
COc1cc(C)cc(S(=O)(=O)c2ccc(CNC(=O)c3cc4ccncc4s3)cc2)c1	–	0.8 nM	2.4 nM	–
CCS(=O)(=O)c1cccc(S(=O)(=O)c2ccc(CNC(=O)c3cnc4nccn4c3)cc2)c1	2.7 nM	64.5 nM	–	–
Cn1ncc2c(S(=O)(=O)c3ccc(CNC(=O)c4cnc5[nH]ncc5c4)cc3)cccc21 [N-{[4-(1-methyl-1H-indazole-4-sulfonyl)phenyl]methyl}-1H-pyrazolo[3,4-b]pyridine-5-carboxamide]	20.3 nM	6.4 nM	–	–
COc1ccc(C(F)(F)F)cc1NS(=O)(=O)c1ccc(CNC(=O)c2cc3cnccc3[nH]2)cc1 [N-[(4-{[2-methoxy-5-(trifluoromethyl)phenyl]sulfamoyl}phenyl)methyl]-1H-pyrrolo[3,2-c]pyridine-2-carboxamide]	–	–	0.5 nM	1.6 nM
O=C(NCc1ccc(S(=O)(=O)c2cccc3ccsc23)cc1)c1cnc2[nH]ncc2c1 [N-{[4-(1-benzothiophene-7-sulfonyl)phenyl]methyl}-1H-pyrazolo[3,4-b]pyridine-5-carboxamide]	9.9 nM	12.8 nM	–	–
CCCCOc1cc(F)ccc1S(=O)(=O)c1ccc(CNC(=O)c2cc3ccncc3o2)cc1	–	66.5 nM	33.5 nM	–
COc1cccc(Cl)c1S(=O)(=O)c1ccc(CNC(=O)c2ccc3nccn3c2)cc1 [N-({4-[(2-chloro-6-methoxybenzene)sulfonyl]phenyl}methyl)imidazo[1,2-a]pyridine-6-carboxamide]	–	25.8 nM	20.2 nM	–
COc1cccc(S(=O)(=O)c2ccc(CNC(=O)c3cnc4nccn4c3)cc2)c1 [N-({4-[(3-methoxybenzene)sulfonyl]phenyl}methyl)imidazo[1,2-a]pyrimidine-6-carboxamide]	–	12.4 nM	2 nM	–
O=C(NCc1ccc(S(=O)(=O)c2ccc(C(F)(F)F)cc2Cl)cc1)c1cnc2[nH]ncc2c1 [N-[(4-{[2-chloro-4-(trifluoromethyl)benzene]sulfonyl}phenyl)methyl]-1H-pyrazolo[3,4-b]pyridine-5-carboxamide]	114 nM	86.9 nM	–	–
O=C(NCc1ccc(S(=O)(=O)c2cccc3cccnc23)cc1)c1cnc2[nH]ncc2c1 [N-{[4-(quinoline-8-sulfonyl)phenyl]methyl}-1H-pyrazolo[3,4-b]pyridine-5-carboxamide]	45.5 nM	23.6 nM	–	–
O=C(NCc1ccc(S(=O)(=O)c2ccccc2)cc1)c1cn2ccncc2n1 [N-{[4-(benzenesulfonyl)phenyl]methyl}imidazo[1,2-a]pyrazine-2-carboxamide]	–	–	1490 nM	> 30000 nM
O=C(NCc1ccc(S(=O)(=O)c2ccc(F)cc2Cl)cc1)c1cc2ccncc2o1	–	63.4 nM	17.8 nM	–
CC(C)Oc1ccc(Cl)cc1S(=O)(=O)c1ccc(CNC(=O)c2cnc3[nH]ncc3c2)cc1 [N-[(4-{[5-chloro-2-(propan-2-yloxy)benzene]sulfonyl}phenyl)methyl]-1H-pyrazolo[3,4-b]pyridine-5-carboxamide]	67.8 nM	27.1 nM	–	–

SMILES	IC50 (NAMPT; NAMPT enzymatic assay)	IC50 (A2780 cells; SRB)	IC50 (NAMPT; NAMPT enzymatic reaction)	IC50 (A2780 cells; SRB assay)
O=C(NCc1ccc(S(=O)(=O)c2ccc(Cl)c(F)c2)cc1)c1cc2ccncc2s1 [N-({4-[(4-chloro-3-fluorobenzene)sulfonyl]phenyl}methyl)thieno[2,3-c]pyridine-2-carboxamide]	–	–	3 nM	7.1 nM
CCCOc1ccc(S(=O)(=O)c2ccc(CNC(=O)c3ccc4nccn4c3)cc2)cc1Cl	–	6 nM	6.5 nM	–
COc1ccc(C(C)(C)C)cc1S(=O)(=O)c1ccc(CNC(=O)c2cc3ccncc3s2)cc1 [N-({4-[(5-tert-butyl-2-methoxybenzene)sulfonyl]phenyl}methyl)thieno[2,3-c]pyridine-2-carboxamide]	–	–	15 nM	4.6 nM
O=C(NCc1ccc(S(=O)(=O)c2cnc3ccccc3c2)cc1)c1cc2cnccc2[nH]1 [N-{[4-(quinoline-3-sulfonyl)phenyl]methyl}-1H-pyrrolo[3,2-c]pyridine-2-carboxamide]	16.3 nM	2.9 nM	–	–
Cn1ncc2c(S(=O)(=O)c3ccc(CNC(=O)c4cc5cc(O)ccc5[nH]4)cc3)cccc21 [5-hydroxy-N-{[4-(1-methyl-1H-indazole-4-sulfonyl)phenyl]methyl}-1H-indole-2-carboxamide]	–	> 1000 nM	100 to 1000 nM	–
CCCCOc1cccc(S(=O)(=O)c2ccc(CNC(=O)c3cc4ccncc4o3)cc2)c1 [N-({4-[(3-butoxybenzene)sulfonyl]phenyl}methyl)furo[2,3-c]pyridine-2-carboxamide]	–	69.5 nM	12.3 nM	–
CC(=O)c1ccccc1S(=O)(=O)c1ccc(CNC(=O)c2cc3ccncc3o2)cc1 [N-({4-[(2-acetylbenzene)sulfonyl]phenyl}methyl)furo[2,3-c]pyridine-2-carboxamide]	–	6.5 nM	5.7 nM	–
CCN(CC)C(=O)c1cc(Cl)cc(S(=O)(=O)c2ccc(CNC(=O)c3cnc4nccn4c3)cc2)c1	0.9 nM	1.2 nM	–	–
O=C(NCc1ccc(S(=O)(=O)c2cccc3c2Oc2ccccc2S3)cc1)c1cnc2[nH]ncc2c1 [N-{[4-(phenoxathiine-4-sulfonyl)phenyl]methyl}-1H-pyrazolo[3,4-b]pyridine-5-carboxamide]	14.8 nM	20.4 nM	–	–
O=C(NCc1ccc(S(=O)(=O)c2ccc(Cl)cc2C(F)(F)F)cc1)c1cc2cnccc2[nH]1	42.2 nM	17.4 nM	–	–
CN(C)CCc1cccc(S(=O)(=O)c2ccc(CNC(=O)c3cnc4nccn4c3)cc2)c1	3.5 nM	100 to 1000 nM	–	–
Cc1cc(F)cc(S(=O)(=O)c2ccc(CNC(=O)c3ccc4nccn4c3)cc2)c1 [N-({4-[(3-fluoro-5-methylbenzene)sulfonyl]phenyl}methyl)imidazo[1,2-a]pyridine-6-carboxamide]	–	0.6 nM	2.7 nM	–
Cc1ccc(Cl)c(S(=O)(=O)c2ccc(CNC(=O)c3cnc4[nH]ncc4c3)cc2)c1	–	65.9 nM	60.2 nM	–
Cc1cc(F)cc(S(=O)(=O)c2ccc(CNC(=O)c3cnc4nccn4c3)cc2)c1	–	5.4 nM	1.5 nM	–
Cc1ccc(F)cc1S(=O)(=O)c1ccc(CNC(=O)c2cnc3nccn3c2)cc1	2.7 nM	35.1 nM	–	–
O=C(NCc1ccc(S(=O)(=O)c2cncc(N3CCCC3)c2)cc1)c1cc2ccncc2o1 [N-({4-[5-(pyrrolidin-1-yl)pyridine-3-sulfonyl]phenyl}methyl)furo[2,3-c]pyridine-2-carboxamide]	22.8 nM	4.9 nM	–	–
COc1cc(C)cc(S(=O)(=O)c2ccc(CNC(=O)c3cc4cnccc4[nH]3)cc2)c1OC [N-({4-[(2,3-dimethoxy-5-methylbenzene)sulfonyl]phenyl}methyl)-1H-pyrrolo[3,2-c]pyridine-2-carboxamide]	10 nM	2 nM	–	–
Cc1cc(C(F)(F)F)ccc1S(=O)(=O)c1ccc(CNC(=O)c2cnc3nccn3c2)cc1	7.1 nM	51.1 nM	–	–
O=C(NCc1ccc(S(=O)(=O)c2cccc(Oc3ccc(F)cc3)c2)cc1)c1cc2ccncc2s1	2.6 nM	65.6 nM	–	–
CCc1ccc(S(=O)(=O)c2ccc(CNC(=O)c3cnc4nccn4c3)cc2)cc1	–	6.2 nM	1.2 nM	–
O=C(NCc1ccc(S(=O)(=O)c2ccc(-n3cccn3)cc2F)cc1)c1cnc2nccn2c1	2.2 nM	19 nM	–	–
Cc1cccc(S(=O)(=O)c2ccc(CNC(=O)c3cnc4[nH]ncc4c3)cc2)c1F	–	23.9 nM	19.7 nM	–
Cc1ccc(Cl)c(S(=O)(=O)c2ccc(CNC(=O)c3cc4ccncc4o3)cc2)c1	–	14.9 nM	17.8 nM	–
